Laboratory results published in US10266609B2, “Immunomodulating beta-1,6-D-glucans” (Innate Biotherapeutics, LLC, priority 2014, dated 2019).

Test system: Anti-β-1,6-Glucan IgG antibodies (affinity purified from IVIG, Baxter)
Experiment: ELISA: binding of oligosaccharides to anti-β-1,6-glucan antibodies; note: key: a plus (+) sign indicates that the glucan was active in the assay; a minus (−) sign indicates that the glucan was not active; the '+/−' symbol indicates inconclusive results
Conditions: plate coated with oligosaccharide in PBS; 40 ug/mL anti-Beta 1,6 Glucan IgG; anti-human IgG-HRP, TMB, absorbance at 620 nm
Experimental: Binding of oligosaccharides to anti-β-1,6-glucan antibodies is performed as described in the following protocol.
• 1. […] Anti-β-1,6-Glucan IgG antibodies (affinity purified from IVIG, Baxter) • 6. […] PBS-Tween buffer (PH 7.2, 0.05% Tween 20, Kpl cat #51-12-01) II. Method: Detection of Anti-Beta Glucan IgG by ELISA • 1. Coat plate with oligosaccharides in PBS overnight at 4° C. • 2. Wash 3 times with 250 uL of PBS-Tween • 3. Empty plate • 4. Block plate with 200 uL of Casein for 1 hour at room temperature • 5. Empty plate • 6. Add 40 ug/mL anti-Beta 1,6 Glucan IgG (4 ug/well) in Casein • 7. Incubate for 45 min at room temperature • 8. Wash 3 times with 250 uL of PBS-Tween • 9. Empty plate • 10. Add detection antibody: anti-human IgG-HRP at 1:5000—in casein. Incubate for 45 min at room temperature in the dark • 11. Wash 5 times with 250 uL of PBS-Tween • 12. Empty plate • 13. Add 100 uL of one step ultra TMB • 14. Measure the absorbance at 620 nm every 1 min for 60 min Tables 1-3 provide ELISA assay data for certain glucan compounds.

ELISA assay data: glucan active in detection of anti-beta glucan IgG, +:
CN(Cc1ccc(C(=O)O)cc1)CC(O)[C@@H](O)[C@H](O)[C@H](O)CO[C@@H]1O[C@H](CO[C@@H]2O[C@H](CO[C@@H]3O[C@H](CO[C@@H]4O[C@H](CO[C@@H]5O[C@H](CO[C@@H]6O[C@H](CO)[C@@H](O)[C@H](O)[C@H]6O)[C@@H](O)[C@H](O)[C@H]5O)[C@@H](O)[C@H](O)[C@H]4O)[C@@H](O)[C@H](O)[C@H]3O)[C@@H](O)[C@H](O)[C@H]2O)[C@@H](O)[C@H](O)[C@H]1O (mixture of isomers) [N(Me),N(CH2)4-BzOH, n=6]
O=C(O)c1cc(OCc2cn(CCO[C@@H]3O[C@H](CO[C@@H]4O[C@H](CO[C@@H]5O[C@H](CO[C@@H]6O[C@H](CO[C@@H]7O[C@H](CO[C@@H]8O[C@H](CO)[C@@H](O)[C@H](O)[C@H]8O)[C@@H](O)[C@H](O)[C@H]7O)[C@@H](O)[C@H](O)[C@H]6O)[C@@H](O)[C@H](O)[C@H]5O)[C@@H](O)[C@H](O)[C@H]4O)[C@@H](O)[C@H](O)[C@H]3O)nn2)cc(OCc2cn(CCO[C@@H]3O[C@H](CO[C@@H]4O[C@H](CO[C@@H]5O[C@H](CO[C@@H]6O[C@H](CO[C@@H]7O[C@H](CO[C@@H]8O[C@H](CO)[C@@H](O)[C@H](O)[C@H]8O)[C@@H](O)[C@H](O)[C@H]7O)[C@@H](O)[C@H](O)[C@H]6O)[C@@H](O)[C@H](O)[C@H]5O)[C@@H](O)[C@H](O)[C@H]4O)[C@@H](O)[C@H](O)[C@H]3O)nn2)c1 [(β-D-glucopyanosy1-1,6)nβ-O(CH2)2-, n=6, 3,5-bis(1[2-[O-β-D-glucopyranosyl-(1→6)]6oxy]ethyl-1H-1,2,3-triazol-4-yl)methoxybenzoic acid]
O=C(O)C1CCN(CC(O)[C@@H](O)[C@H](O)[C@H](O)CO[C@@H]2O[C@H](CO[C@@H]3O[C@H](CO[C@@H]4O[C@H](CO[C@@H]5O[C@H](CO[C@@H]6O[C@H](CO)[C@@H](O)[C@H](O)[C@H]6O)[C@@H](O)[C@H](O)[C@H]5O)[C@@H](O)[C@H](O)[C@H]4O)[C@@H](O)[C@H](O)[C@H]3O)[C@@H](O)[C@H](O)[C@H]2O)C1 (mixture of isomers) [3-pyrrolidineCO2H, n=5]
COC1O[C@H](CO[C@@H]2O[C@H](CO[C@@H]3O[C@H](CO[C@@H]4O[C@H](CO[C@@H]5O[C@H](CO[C@@H]6O[C@H](CO[C@@H]7O[C@H](CO[C@@H]8O[C@H](CO)[C@@H](O)[C@H](O)[C@H]8O)[C@@H](O)[C@H](O)[C@H]7O)[C@@H](O)[C@H](O)[C@H]6O)[C@@H](O)[C@H](O)[C@H]5O)[C@@H](O)[C@H](O)[C@H]4O)[C@@H](O)[C@H](O)[C@H]3O)[C@@H](O)[C@H](O)[C@H]2O)[C@@H](O)[C@H](O)[C@H]1O (stereo partly drawn) [OCH3, n=8, methyl [O-β-D-glucopyranosyl-1,6]7-D-glucopyranoside]
OC[C@H]1O[C@@H](OC[C@H]2O[C@@H](OC[C@H]3O[C@@H](OC[C@H]4O[C@@H](OC[C@H]5O[C@@H](OC[C@H]6OC(OCCCl)[C@H](O)[C@@H](O)[C@@H]6O)[C@H](O)[C@@H](O)[C@@H]5O)[C@H](O)[C@@H](O)[C@@H]4O)[C@H](O)[C@@H](O)[C@@H]3O)[C@H](O)[C@@H](O)[C@@H]2O)[C@H](O)[C@@H](O)[C@@H]1O (stereo partly drawn) [α-O(CH2)2Cl, n=6, 2-chloroethyl [O-β-D-glucopyranosyl-1,6]5-D-glucopyranoside]
OCC1OC(OCC2OC(OCC3OC(OCC4OC(OCC5OC(OCC6OC(OCC7OC(OCC8OC(OCC9OC(O)C(O)C(O)C9O)C(O)C(O)C8O)C(O)C(O)C7O)C(O)C(O)C6O)C(O)C(O)C5O)C(O)C(O)C4O)C(O)C(O)C3O)C(O)C(O)C2O)C(O)C(O)C1O (stereo not drawn) [OH, n=9]
CO[C@H]1O[C@H](CO[C@@H]2O[C@H](CO[C@@H]3O[C@H](CO[C@@H]4O[C@H](CO[C@@H]5O[C@H](CO[C@@H]6O[C@H](CO)[C@@H](O)[C@H](O)[C@H]6O)[C@@H](O)[C@H](O)[C@H]5O)[C@@H](O)[C@H](O)[C@H]4O)[C@@H](O)[C@H](O)[C@H]3O)[C@@H](O)[C@H](O)[C@H]2O)[C@@H](O)[C@H](O)[C@H]1O [OCH3, n=6, methyl [O-β-D-glucopyranosyl-1,6]5-D-glucopyranoside]
O=C(O)c1cc(OCc2cn(CCO[C@@H]3O[C@H](CO[C@@H]4O[C@H](CO[C@@H]5O[C@H](CO[C@@H]6O[C@H](CO)[C@@H](O)[C@H](O)[C@H]6O)[C@@H](O)[C@H](O)[C@H]5O)[C@@H](O)[C@H](O)[C@H]4O)[C@@H](O)[C@H](O)[C@H]3O)nn2)cc(OCc2cn(CCO[C@@H]3O[C@H](CO[C@@H]4O[C@H](CO[C@@H]5O[C@H](CO[C@@H]6O[C@H](CO)[C@@H](O)[C@H](O)[C@H]6O)[C@@H](O)[C@H](O)[C@H]5O)[C@@H](O)[C@H](O)[C@H]4O)[C@@H](O)[C@H](O)[C@H]3O)nn2)c1 [(β-D-glucopyanosy1-1,6)nβ-O(CH2)2-, n=4, 3,5-bis(1[2-[O-β-D-glucopyranosyl-(1→6)]4oxy]ethyl-1H-1,2,3-triazol-4-yl)methoxybenzoic acid]
OCC1OC(OCC2OC(OCC3OC(OCC4OC(O)C(O)C(O)C4O)C(O)C(O)C3O)C(O)C(O)C2O)C(O)C(O)C1O (stereo not drawn) [OH, n=4]
O=C(O)c1cc(OCc2cn(CCO[C@H]3O[C@H](CO[C@@H]4O[C@H](CO[C@@H]5O[C@H](CO)[C@@H](O)[C@H](O)[C@H]5O)[C@@H](O)[C@H](O)[C@H]4O)[C@@H](O)[C@H](O)[C@H]3O)nn2)cc(OCc2cn(CCO[C@H]3O[C@H](CO[C@@H]4O[C@H](CO[C@@H]5O[C@H](CO)[C@@H](O)[C@H](O)[C@H]5O)[C@@H](O)[C@H](O)[C@H]4O)[C@@H](O)[C@H](O)[C@H]3O)nn2)c1 [(β-D-glucopyanosy1-1,6)nα-O(CH2)2-, n=3, 3,5-bis(1[2-[O-β-D-glucopyranosyl-(1→6)-O-β-D-glucopyranosyl-(1→6)-α-D-glucopyranosyl]oxy]ethyl-1H-1,2,3-triazol-4-yl)methoxybenzoic acid]
[N-]=[N+]=NCCOC1OC(COC2OC(COC3OC(CO)C(O)C(O)C3O)C(O)C(O)C2O)C(O)C(O)C1O (stereo not drawn) [α-O(CH2)2N3, n=3]
CN(Cc1ccc(C(=O)O)cc1)CC(O)[C@@H](O)[C@H](O)[C@H](O)CO[C@@H]1O[C@H](CO[C@@H]2O[C@H](CO[C@@H]3O[C@H](CO[C@@H]4O[C@H](CO)[C@@H](O)[C@H](O)[C@H]4O)[C@@H](O)[C@H](O)[C@H]3O)[C@@H](O)[C@H](O)[C@H]2O)[C@@H](O)[C@H](O)[C@H]1O (mixture of isomers) [N(Me),N(CH2)4-BzOH, n=4]
CN(CCCCCN)CC(O)[C@@H](O)[C@H](O)[C@H](O)CO[C@@H]1O[C@H](CO[C@@H]2O[C@H](CO[C@@H]3O[C@H](CO)[C@@H](O)[C@H](O)[C@H]3O)[C@@H](O)[C@H](O)[C@H]2O)[C@@H](O)[C@H](O)[C@H]1O (mixture of isomers) [N(Me),N(CH2)5NH2, n=3]
[O-β-D-glucopyranosyl-1,6-]5-D-glucose [OH, n=6]
OC[C@H]1O[C@@H](OC[C@H]2O[C@@H](OC[C@H]3O[C@@H](OC[C@H]4OC(OCCCl)[C@H](O)[C@@H](O)[C@@H]4O)[C@H](O)[C@@H](O)[C@@H]3O)[C@H](O)[C@@H](O)[C@@H]2O)[C@H](O)[C@@H](O)[C@@H]1O (stereo partly drawn) [α-O(CH2)2Cl, n=4, 2-chloroethyl [O-β-D-glucopyranosyl-1,6]3-D-glucopyranoside]
OC[C@H]1O[C@@H](OC[C@H]2O[C@@H](OC[C@H]3O[C@@H](OC[C@H]4O[C@@H](OC[C@H]5O[C@@H](OC[C@H]6O[C@@H](OC[C@H]7O[C@@H](OC[C@H]8O[C@H](OCCCl)[C@H](O)[C@@H](O)[C@@H]8O)[C@H](O)[C@@H](O)[C@@H]7O)[C@H](O)[C@@H](O)[C@@H]6O)[C@H](O)[C@@H](O)[C@@H]5O)[C@H](O)[C@@H](O)[C@@H]4O)[C@H](O)[C@@H](O)[C@@H]3O)[C@H](O)[C@@H](O)[C@@H]2O)[C@H](O)[C@@H](O)[C@@H]1O [α-O(CH2)2Cl, n=8, 2-chloroethyl [O-β-D-glucopyranosyl-1,6]7-D-glucopyranoside]
OC[C@H]1O[C@@H](OC[C@H]2OC(O)[C@H](O)[C@@H](O)[C@@H]2O)[C@H](O)[C@@H](O)[C@@H]1O (stereo partly drawn) [OH, n=2]
OC[C@H]1O[C@@H](OC[C@H]2O[C@@H](OC[C@H]3O[C@@H](OC[C@H]4O[C@@H](OC[C@H]5O[C@@H](OC[C@H]6O[C@@H](OC[C@H]7OC(OCCCl)[C@H](O)[C@@H](O)[C@@H]7O)[C@H](O)[C@@H](O)[C@@H]6O)[C@H](O)[C@@H](O)[C@@H]5O)[C@H](O)[C@@H](O)[C@@H]4O)[C@H](O)[C@@H](O)[C@@H]3O)[C@H](O)[C@@H](O)[C@@H]2O)[C@H](O)[C@@H](O)[C@@H]1O (stereo partly drawn) [α-O(CH2)2Cl, n=7, 2-chloroethyl [O-β-D-glucopyranosyl-1,6]6-D-glucopyranoside]
